Data taken from US20240199597A1, “SMALL MOLECULES FOR THE TREATMENT OF KINASE-RELATED DISEASES” (Athos Therapeutics, Inc., priority 2021, published 2024).

Legend:
CLK1 = molecular target: T1, CLK1 (Homo sapiens, UniProt P49759); assay: Kinase inhibition assay (Eurofins DiscoverX KinaseProfiler / KdElect), CLK1; assay type: biochemical
T1 construct: purchased Eurofins DiscoverX (contract service)
Procedure: (§1) The activity of Compounds 1, 3, 4, 6, 7, 8, 9, 10 and 13 in inhibiting CLK1, CLK4, PLK4, and FLT3 kinases was determined. Stock solutions of the compounds being evaluated were prepared. The IC50 values were determined by the Eurofins DiscoverX services using either the KinaseProfiler or the KdElect kinase activity detection assays.

CLK4 = molecular target: T2, CLK4 (Homo sapiens, UniProt Q9HAZ1); assay: Kinase inhibition assay (Eurofins DiscoverX KinaseProfiler / KdElect), CLK4; assay type: biochemical
T2 construct: purchased Eurofins DiscoverX (contract service)
Procedure: as §1

PLK4 = molecular target: T3, PLK4 (Homo sapiens, UniProt O00444); assay: Kinase inhibition assay (Eurofins DiscoverX KinaseProfiler / KdElect), PLK4; assay type: biochemical
T3 construct: purchased Eurofins DiscoverX (contract service)
T3 sequence (O00444 1-970): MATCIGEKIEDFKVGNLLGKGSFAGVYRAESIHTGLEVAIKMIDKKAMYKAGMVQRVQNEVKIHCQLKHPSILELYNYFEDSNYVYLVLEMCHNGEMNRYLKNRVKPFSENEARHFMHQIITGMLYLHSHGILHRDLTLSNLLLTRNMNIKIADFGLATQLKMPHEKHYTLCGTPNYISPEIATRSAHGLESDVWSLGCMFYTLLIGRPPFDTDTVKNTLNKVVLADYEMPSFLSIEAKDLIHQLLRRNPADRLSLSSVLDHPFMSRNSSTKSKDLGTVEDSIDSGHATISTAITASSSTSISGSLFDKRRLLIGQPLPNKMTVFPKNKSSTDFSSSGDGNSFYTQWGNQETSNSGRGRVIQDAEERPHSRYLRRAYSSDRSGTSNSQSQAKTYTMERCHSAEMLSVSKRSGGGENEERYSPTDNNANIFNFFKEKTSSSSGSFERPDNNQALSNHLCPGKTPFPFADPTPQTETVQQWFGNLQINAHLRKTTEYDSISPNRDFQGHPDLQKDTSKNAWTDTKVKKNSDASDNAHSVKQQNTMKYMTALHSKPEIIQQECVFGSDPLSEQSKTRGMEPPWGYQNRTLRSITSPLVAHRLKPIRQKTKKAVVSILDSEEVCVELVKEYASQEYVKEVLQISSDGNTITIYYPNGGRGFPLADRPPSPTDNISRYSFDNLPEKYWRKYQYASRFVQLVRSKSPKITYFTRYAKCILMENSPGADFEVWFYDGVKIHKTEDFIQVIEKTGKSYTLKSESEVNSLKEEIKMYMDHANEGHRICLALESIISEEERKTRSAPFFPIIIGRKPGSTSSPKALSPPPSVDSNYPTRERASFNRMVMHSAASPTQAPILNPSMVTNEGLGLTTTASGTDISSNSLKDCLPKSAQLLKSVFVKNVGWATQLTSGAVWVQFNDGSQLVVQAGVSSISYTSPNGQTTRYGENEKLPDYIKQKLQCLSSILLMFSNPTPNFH
Procedure: as §1

FLT3 = molecular target: T4, FLT3 (Homo sapiens, UniProt P36888); assay: Kinase assay (Eurofins DiscoverX KinaseProfiler / KdElect), FLT3; assay type: binding; conditions: read-out: FLT3 (Kd50 nM)
T4 construct: purchased Eurofins DiscoverX (contract service)
T4 sequence (P36888 27-993): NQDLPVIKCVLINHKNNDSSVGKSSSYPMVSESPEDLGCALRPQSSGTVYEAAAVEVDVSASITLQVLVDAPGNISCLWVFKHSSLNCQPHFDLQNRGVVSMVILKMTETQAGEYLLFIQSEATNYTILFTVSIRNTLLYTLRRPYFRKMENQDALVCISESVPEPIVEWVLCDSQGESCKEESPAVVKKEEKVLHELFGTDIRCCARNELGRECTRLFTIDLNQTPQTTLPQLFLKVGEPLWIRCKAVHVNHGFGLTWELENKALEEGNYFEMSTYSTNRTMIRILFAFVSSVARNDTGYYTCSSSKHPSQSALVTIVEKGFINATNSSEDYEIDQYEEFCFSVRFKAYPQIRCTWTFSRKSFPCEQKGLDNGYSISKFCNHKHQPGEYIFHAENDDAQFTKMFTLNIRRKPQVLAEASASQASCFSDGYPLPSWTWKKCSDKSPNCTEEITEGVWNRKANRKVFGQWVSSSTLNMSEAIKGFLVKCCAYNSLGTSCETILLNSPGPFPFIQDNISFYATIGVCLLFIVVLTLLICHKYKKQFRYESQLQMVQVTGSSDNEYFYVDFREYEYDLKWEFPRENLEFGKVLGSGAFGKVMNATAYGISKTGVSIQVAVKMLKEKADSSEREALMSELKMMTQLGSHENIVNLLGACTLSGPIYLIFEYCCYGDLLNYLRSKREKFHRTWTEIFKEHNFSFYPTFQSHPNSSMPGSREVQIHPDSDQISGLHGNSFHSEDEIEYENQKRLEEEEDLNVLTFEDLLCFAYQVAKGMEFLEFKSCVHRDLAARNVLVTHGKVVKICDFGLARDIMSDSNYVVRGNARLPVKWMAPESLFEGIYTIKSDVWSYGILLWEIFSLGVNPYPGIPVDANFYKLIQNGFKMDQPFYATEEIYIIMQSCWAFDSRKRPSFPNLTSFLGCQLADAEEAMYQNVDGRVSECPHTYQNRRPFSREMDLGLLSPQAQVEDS
Procedure: Stock solutions of the compounds being evaluated were prepared. The IC50 values were determined by the Eurofins DiscoverX services using either the KinaseProfiler or the KdElect kinase activity detection assays.

HCT-116 = assay: Cancer cytotoxicity assay (Real-Time-Glo cell viability), HCT-116; assay type: cell-based; conditions: Homo sapiens, colorectal cancer cell line, 72 hr
Procedure: (§2) The cytotoxicity of Compounds 1, 3, 4, 6, 7, 8, 9, 10, 12 and 13 against cancer cell lines was determined. To determine the optimal plating density for cell viability assays, for each cell line, cells were counted and diluted to final densities of 2.5, 5, 10 and 20 thousand per 100 μL of their respective growth media per well in 96 well plates. The Promega Real-Time-Glo cell viability kit was used to determine the optimal concentration for cell plating so that each cell line would be within the linear part of its growth curve after 72 hrs in culture. For the determination of test compound IC50s, different cancer cell lines were plated in 96 well plates in the pre-determined optimal density for each cell line. Test compounds were then added at different concentrations for the creation of six-point curve and cell density was determined using the Promega Real-Time-Glo cell viability kit after 24, 48, and 72 hrs in culture.

HT-29 = assay: Cancer cytotoxicity assay (Real-Time-Glo cell viability), HT-29; assay type: cell-based; conditions: Homo sapiens, colorectal cancer cell line, 72 hr
Procedure: as §2

A-498 = assay: Cancer cytotoxicity assay (Real-Time-Glo cell viability), A-498; assay type: cell-based; conditions: Homo sapiens, A498; kidney cancer, 72 hr
Procedure: as §2

786-O = assay: Cancer cytotoxicity assay (Real-Time-Glo cell viability), 786-O; assay type: cell-based; conditions: Homo sapiens, 786-0; kidney cancer, 72 hr
Procedure: as §2

SKOV-3 = assay: Cancer cytotoxicity assay (Real-Time-Glo cell viability), SKOV-3; assay type: cell-based; conditions: Homo sapiens, SK-OV-3; ovarian cancer cell line, 72 hr
Procedure: as §2

OV-90 = assay: Cancer cytotoxicity assay (Real-Time-Glo cell viability), OV-90; assay type: cell-based; conditions: Homo sapiens, ovarian cancer cell line, 72 hr
Procedure: as §2

Kasumi-1 = assay: Cancer cytotoxicity assay (Real-Time-Glo cell viability), Kasumi-1; assay type: cell-based; conditions: Homo sapiens, leukemia cell, 72 hr
Procedure: as §2

Kasumi-3 = assay: Cancer cytotoxicity assay (Real-Time-Glo cell viability), Kasumi-3; assay type: cell-based; conditions: leukemia cell, 72 hr
Procedure: as §2

MV4-11 = assay: Cancer cytotoxicity assay (Real-Time-Glo cell viability), MV4-11; assay type: cell-based; conditions: Homo sapiens, leukemia cell, 72 hr
Procedure: as §2

T2 sequence (Q9HAZ1 whole entry): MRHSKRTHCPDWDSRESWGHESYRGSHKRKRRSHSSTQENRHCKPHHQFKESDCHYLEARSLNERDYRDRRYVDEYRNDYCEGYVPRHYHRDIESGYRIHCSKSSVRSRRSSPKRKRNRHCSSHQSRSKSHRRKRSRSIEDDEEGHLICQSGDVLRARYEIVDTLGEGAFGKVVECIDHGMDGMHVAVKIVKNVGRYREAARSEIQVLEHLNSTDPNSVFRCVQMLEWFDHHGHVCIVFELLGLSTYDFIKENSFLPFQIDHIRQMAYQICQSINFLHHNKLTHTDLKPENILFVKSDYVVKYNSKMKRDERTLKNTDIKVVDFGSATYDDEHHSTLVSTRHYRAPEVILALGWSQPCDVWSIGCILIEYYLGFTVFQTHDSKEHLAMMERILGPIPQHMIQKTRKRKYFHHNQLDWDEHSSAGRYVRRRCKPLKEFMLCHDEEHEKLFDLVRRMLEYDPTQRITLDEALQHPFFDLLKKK
T1 sequence (P49759 whole entry): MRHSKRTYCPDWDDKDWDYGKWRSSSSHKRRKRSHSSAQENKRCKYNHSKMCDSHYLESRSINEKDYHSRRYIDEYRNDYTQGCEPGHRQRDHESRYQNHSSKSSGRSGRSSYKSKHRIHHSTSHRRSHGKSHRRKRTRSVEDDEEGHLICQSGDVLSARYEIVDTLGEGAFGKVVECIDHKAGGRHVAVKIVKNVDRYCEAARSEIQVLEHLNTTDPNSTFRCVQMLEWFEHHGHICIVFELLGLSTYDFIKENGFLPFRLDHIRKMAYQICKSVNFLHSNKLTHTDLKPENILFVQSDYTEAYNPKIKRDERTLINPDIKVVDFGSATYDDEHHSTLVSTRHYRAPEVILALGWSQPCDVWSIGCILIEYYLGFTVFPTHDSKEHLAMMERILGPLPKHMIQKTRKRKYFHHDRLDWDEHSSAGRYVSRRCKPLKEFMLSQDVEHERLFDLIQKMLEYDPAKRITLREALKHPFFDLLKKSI

Structure (SMILES)	IC50 (CLK1) [nM]	IC50 (CLK4) [nM]	IC50 (PLK4) [nM]	Kd (FLT3) [µM]	IC50 (HCT-116) [nM]	IC50 (HT-29) [nM]	IC50 (A-498) [nM]	IC50 (786-O) [nM]	IC50 (SKOV-3) [nM]	IC50 (OV-90) [nM]	IC50 (Kasumi-1) [nM]	IC50 (Kasumi-3) [nM]	IC50 (MV4-11) [nM]	kinase selectivity (CLK1; among CLK1, CLK4, PLK4, FLT3)
COc1cc2c(Nc3ncc(C)s3)nc(N3CCC(F)(F)CC3)nc2cc1OCCCN1CCCC1 [Compound 9, N-(2-(4,4-difluoropiperidin-1-yl)-6-methoxy-7-(3-(pyrrolidin-1-yl)propoxy)quinazolin-4-yl)-5-methylthiazol-2-amine]	< 1000	< 1000	> 10000	> 10	5000 to 10000	> 10000	1000 to 5000	1000 to 5000	1000 to 5000	5000 to 10000	1000 to 5000	1000 to 5000	1000 to 5000	
COc1cc2c(Nc3cc(C)[nH]n3)nc(N3CCC(F)(F)CC3)nc2cc1OCCCN1CCCC1 [Compound 3, 2-(4,4-difluoropiperidin-1-yl)-6-methoxy-N-(5-methyl-1H-pyrazol-3-yl)-7-(3-(pyrrolidin-1-yl)propoxy)quinazolin-4-amine]	< 1000	< 1000	< 1000	1 to 5	1000 to 5000	5000 to 10000	5000 to 10000	5000 to 10000	1000 to 5000	1000 to 5000	> 10000	5000 to 10000	1000 to 5000	
COc1cc2c(Nc3nnc(C)s3)nc(N3CCC(F)(F)CC3)nc2cc1OCCCN1CCCC1 [Compound 12, N-(2-(4,4-difluoropiperidin-1-yl)-6-methoxy-7-(3-(pyrrolidin-1-yl)propoxy)quinazolin-4-yl)-5-methyl-1,3,4-thiadiazol-2-amine]					1000 to 5000	1000 to 5000	1000 to 5000	5000 to 10000	1000 to 5000	1000 to 5000	1000 to 5000	1000 to 5000	1000 to 5000	
COc1cc2c(Nc3cc(C4CC4)[nH]n3)nc(N3CCC(F)(F)CC3)nc2cc1OCCCN1CCCC1 [Compound 6, N-(5-cyclopropyl-1H-pyrazol-3-yl)-2-(4,4-difluoropiperidin-1-yl)-6-methoxy-7-(3-(pyrrolidin-1-yl)propoxy)quinazolin-4-amine]	< 1000	< 1000	< 1000		1000 to 5000	1000 to 5000	1000 to 5000	1000 to 5000	1000 to 5000	1000 to 5000	1000 to 5000	1000 to 5000	< 1000	
COc1cc2c(Nc3cc(C4CCC4)[nH]n3)nc(N3CCC(F)(F)CC3)nc2cc1OCCCN1CCCC1 [Compound 10, N-(5-cyclobutyl-1H-pyrazol-3-yl)-2-(4,4-difluoropiperidin-1-yl)-6-methoxy-7-(3-(pyrrolidin-1-yl)propoxy)quinazolin-4-amine]	< 1000	< 1000	1000 to 5000		1000 to 5000	1000 to 5000	1000 to 5000	1000 to 5000	1000 to 5000	1000 to 5000	< 1000	< 1000	< 1000	
COc1cc2c(Nc3cc(C(C)C)[nH]n3)nc(N3CCC(F)(F)CC3)nc2cc1OCCCN1CCCC1 [Compound 13, 2-(4,4-difluoropiperidin-1-yl)-N-(5-isopropyl-1H-pyrazol-3-yl)-6-methoxy-7-(3-(pyrrolidin-1-yl)propoxy)quinazolin-4-amine]	< 1000	< 1000	> 10000	1 to 5	1000 to 5000	1000 to 5000	1000 to 5000	1000 to 5000	1000 to 5000	1000 to 5000	1000 to 5000	1000 to 5000	< 1000	
COc1cc2c(Nc3cc(C(C)(C)C)[nH]n3)nc(N3CCC(F)(F)CC3)nc2cc1OCCCN1CCCC1 [Compound 7, N-(5-(tert-butyl)-1H-pyrazol-3-yl)-2-(4,4-difluoropiperidin-1-yl)-6-methoxy-7-(3-(pyrrolidin-1-yl)propoxy)quinazolin-4-amine]	< 1000	< 1000	> 10000	> 10	1000 to 5000	1000 to 5000	1000 to 5000	1000 to 5000	1000 to 5000	1000 to 5000	1000 to 5000	1000 to 5000	1000 to 5000	
COc1cc2c(Nc3cc(C)[nH]n3)nc(N3CCCC3)nc2cc1OCCCN1CCCC1 [Compound 1, 6-Methoxy-N-(5-methyl-1H-pyrazol-3-yl)-2-(pyrrolidin-1-yl)-7-(3-(pyrrolidin-1-yl)propoxy)quinazolin-4-amine]	< 1000	5000 to 10000	> 10000	> 10	1000 to 5000	5000 to 10000	1000 to 5000	5000 to 10000	1000 to 5000	1000 to 5000	1000 to 5000	5000 to 10000	< 1000	selective CLK1/4 inhibitor
COc1cc2c(Nc3cc(C)[nH]n3)nc(N3CCC3)nc2cc1OCCCN1CCCC1 [Compound 4, 2-(Azetidin-1-yl)-6-methoxy-N-(5-methyl-1H-pyrazol-3-yl)-7-(3-(pyrrolidin-1-yl)propoxy)quinazolin-4-amine]	1000 to 5000	5000 to 10000	> 10000	5 to 10	1000 to 5000	> 10000	> 10000	> 10000	> 10000	> 10000	> 10000	> 10000	5000 to 10000	
